This test relates to genotype 1b (Con-1) HCV replicon. The test is described as follows: HCV Replicon Luciferase Assay (genotype 1b). Format: cell-based. Conditions: Hepatitis C virus, 72 h, genotype 1b replicon in Huh-7 cells, Renilla luciferase, 3 days incubation. The protocol: The cell lines used to evaluate compounds consist of a human hepatocyte derived cell line (Huh-7) that constitutively expresses a genotype 1b (Con-1) HCV replicon or a genotype 1b (Con-1) HCV replicon with an asparagine replacing the cysteine at amino acid 316, or a genotype 2a (JFH-1) replicon, containing a Renilla luciferase reporter gene. These cells were maintained in Dulbecco's modified Eagle medium (DMEM) containing 10% FBS, 100 U/mL penicillin/streptomycin and 1.0 mg/mL G418.
To evaluate compound efficacy, titrated compounds were transferred to sterile 384-well tissue culture treated plates, and the plates were seeded with HCV replicon cells (50 μL at a density of 2.4×10^3 cells/well) in DMEM containing 4% FBS (final DMSO concentration at 0.5%). After 3 days incubation at 37° C., cells were analyzed for Renilla Luciferase activity using the EnduRen substrate (Promega cat #E6485) according to the manufacturer's directions. Briefly, the EnduRen substrate was diluted in DMEM and then added to the plates to a final concentration of 7.5 μM. The plates were incubated for at least 1 h at 37° C. then read on a Viewlux Imager (PerkinElmer) using a luminescence program. The 50% effective concentration (EC50) was calculated using the four-parameter logistic formula noted above.
Compound EC50 data is expressed as A: <100 nM; B=100-1000 nM; C>1000 nM).
On the technique in general: Replicon systems follow genome replication, usually without infectious particles.

Read-outs that look alike come from different tables or passages of the source.

As usually defined, the EC50 is the midpoint of the concentration-response curve. As for `CNC(=O)c1c(-c2ccc(F)cc2)oc2nc(Cl)c(-c3ccc(OC)c(C(=O)NCC(F)(F)C(F)(F)C(F)(F)F)c3)cc12` [Compound 10001], the EC50 was 0.1 to 1 µM (read-out: EC50 1b (class)) and 0.149 µM (read-out: EC50 (uM) 1b).
For the compound `C#CC(C)(C)NC(=O)c1cc(-c2cc3c(C(=O)NC)c(-c4ccc(F)cc4)oc3nc2Cl)ccc1OC` [Compound 10002], the EC50 was less than 0.1 µM (read-out: EC50 1b (class)) and 0.0362 µM (read-out: EC50 (uM) 1b).
With `CNC(=O)c1c(-c2ccc(F)cc2)oc2nc(Cl)c(-c3ccc(OC)c(C(=O)NC(CF)(CF)CF)c3)cc12` [Compound 10003], the EC50 (read-out: EC50 1b (class)) is 0.1 to 1 µM.
Same read-out and setting: then `CNC(=O)c1c(-c2ccc(F)cc2)oc2nc(Cl)c(-c3cccc(C(=O)NC(CF)(CF)CF)c3)cc12` [Compound 11001], with 0.1 to 1 µM.
For `CNC(=O)c1c(-c2ccc(F)cc2)oc2nc(CCC(F)(F)F)c(-c3cccc(C(=O)NC(C)(C)C(F)(F)F)c3)cc12` [Compound 20001], the EC50 was less than 0.1 µM (read-out: EC50 1b (class)) and 0.0063 µM (read-out: EC50 (uM) 1b).
Take `CNC(=O)c1c(-c2ccc(F)cc2)oc2nc(CCC(F)(F)F)c(-c3cccc(C(=O)NC(CF)(CF)CF)c3)cc12` [Compound 20002]: the EC50 (read-out: EC50 1b (class)) was less than 0.1 µM.
Regarding `C#CC(C)(C)NC(=O)c1cccc(-c2cc3c(C(=O)NC)c(-c4ccc(F)cc4)oc3nc2CCC(F)(F)F)c1` [Compound 20003], the EC50 is, setting by setting: (read-out: EC50 1b (class)) less than 0.1 µM; (read-out: EC50 (uM) 1b) 0.004 µM.
Take `CNC(=O)c1c(-c2ccc(F)cc2)oc2nc(CCC(F)(F)F)c(-c3cccc(C(=O)NC(C)C(F)(F)F)c3)cc12` (stereo not drawn) [Compound 20004]: for the setting “read-out: EC50 1b (class)”, the EC50 is less than 0.1 µM.
Take `CCC(NC(=O)c1cccc(-c2cc3c(C(=O)NC)c(-c4ccc(F)cc4)oc3nc2CCC(F)(F)F)c1)C(F)(F)F` (stereo not drawn) [Compound 20005]: where the note is “read-out: EC50 1b (class)”, the EC50 is less than 0.1 µM.
Still for that read-out and setting: to `CNC(=O)c1c(-c2ccc(F)cc2)oc2nc(CCC(F)(F)F)c(-c3cccc(C(=O)N[C@@H](CO)C4CC4)c3)cc12` [Compound 20006] belongs less than 0.1 µM; to `CNC(=O)c1c(-c2ccc(F)cc2)oc2nc(CCC(F)(F)F)c(-c3cccc(C(=O)NC(C)(C)C4CC4)c3)cc12` [Compound 20007], less than 0.1 µM; to `CNC(=O)c1c(-c2ccc(F)cc2)oc2nc(CCC(F)(F)F)c(-c3cccc(C(=O)NC(C4CC4)C4CC4)c3)cc12` [Compound 20008], less than 0.1 µM.
Regarding `CC[C@@H](NC(=O)c1cccc(-c2cc3c(C(=O)NC)c(-c4ccc(F)cc4)oc3nc2CCC(F)(F)F)c1)C1CC1` [Compound 20009], the EC50 is less than 0.1 µM (read-out: EC50 1b (class)) and 0.01 µM (read-out: EC50 (uM) 1b).
For `CC[C@H](NC(=O)c1cccc(-c2cc3c(C(=O)NC)c(-c4ccc(F)cc4)oc3nc2CCC(F)(F)F)c1)C1CC1` [Compound 20010], for the setting “read-out: EC50 1b (class)”, the EC50 is less than 0.1 µM.
Take `CNC(=O)c1c(-c2ccc(F)cc2)oc2nc(CCC(F)(F)F)c(-c3cccc(C(=O)N[C@@H](C)C4CC4)c3)cc12` [Compound 20011]: the EC50 (read-out: EC50 1b (class)) is less than 0.1 µM.
For `CNC(=O)c1c(-c2ccc(F)cc2)oc2nc(CCC(F)(F)F)c(-c3cccc(C(=O)N[C@H](C)C4CC4)c3)cc12` [Compound 20012], the EC50 (read-out: EC50 1b (class)) was less than 0.1 µM.
The same measure, in the same setting: to `CNC(=O)c1c(-c2ccc(F)cc2)oc2nc(CCC(F)(F)F)c(-c3cccc(C(=O)NC(C)C4CC4)c3)cc12` (stereo not drawn) [Compound 20013] belongs less than 0.1 µM; to `CNC(=O)c1c(-c2ccc(F)cc2)oc2nc(CCC(F)(F)F)c(-c3cccc(C(=O)N[C@@H](COC)C4CC4)c3)cc12` [Compound 20014], less than 0.1 µM.
`CNC(=O)c1c(-c2ccc(F)cc2)oc2nc(CCC(F)(F)F)c(-c3cccc(C(=O)N[C@H](COC)C4CC4)c3)cc12` [Compound 20015]: the EC50 runs as follows: (read-out: EC50 1b (class)) less than 0.1 µM; (read-out: EC50 (uM) 1b) 0.0056 µM.
As for `CNC(=O)c1c(-c2ccc(F)cc2)oc2nc(CCC(F)(F)F)c(-c3cccc(C(=O)NC(COC)C4CC4)c3)cc12` (stereo not drawn) [Compound 20016], the EC50 by setting is: (read-out: EC50 1b (class)) less than 0.1 µM; (read-out: EC50 (uM) 1b) 0.0217 µM.
For the compound `CNC(=O)c1c(-c2ccc(F)cc2)oc2nc(CCC(F)(F)F)c(-c3cccc(C(=O)NC(c4ccccc4)C4CC4)c3)cc12` (stereo not drawn) [Compound 20017], the EC50 (read-out: EC50 1b (class)) was less than 0.1 µM.
As to `CNC(=O)c1c(-c2ccc(F)cc2)oc2nc(CCC(F)(F)F)c(-c3cccc(C(=O)N4CC5(CCC5C(=O)OC)C4)c3)cc12` (stereo not drawn) [Compound 20018], the EC50 is, setting by setting: (read-out: EC50 1b (class)) 0.1 to 1 µM; (read-out: EC50 (uM) 1b) 0.11 µM.
For `CNC(=O)c1c(-c2ccc(F)cc2)oc2nc(CCC(F)(F)F)c(-c3cccc(C(=O)NCC(F)(F)F)c3)cc12` [Compound 20019], the EC50 (read-out: EC50 1b (class)) is less than 0.1 µM.
In the case of `CNC(=O)c1c(-c2ccc(F)cc2)oc2nc(CCC(F)(F)F)c(-c3cccc(C(=O)NC4CCNC4=O)c3)cc12` (stereo not drawn) [Compound 20020], the EC50 was less than 0.1 µM (read-out: EC50 1b (class)) and 0.0519 µM (read-out: EC50 (uM) 1b).
For the compound `CNC(=O)c1c(-c2ccc(F)cc2)oc2nc(CCC(F)(F)F)c(-c3cccc(C(=O)NCC(F)F)c3)cc12` [Compound 20021], under “read-out: EC50 1b (class)”, the EC50 is less than 0.1 µM.
In the case of `CNC(=O)c1c(-c2ccc(F)cc2)oc2nc(CCC(F)(F)F)c(-c3cccc(C(=O)NCC(F)(F)C(F)(F)F)c3)cc12` [Compound 20022], the EC50 is, setting by setting: (read-out: EC50 1b (class)) less than 0.1 µM; (read-out: EC50 (uM) 1b) 0.0059 µM.
On to `CNC(=O)c1c(-c2ccc(F)cc2)oc2nc(CCC(F)(F)F)c(-c3cccc(C(=O)NC(C)(C)C(=O)OC)c3)cc12` [Compound 20023], for which the EC50 (read-out: EC50 1b (class)) was less than 0.1 µM.
The same measure, in the same setting: to `CNC(=O)c1c(-c2ccc(F)cc2)oc2nc(CCC(F)(F)F)c(-c3cccc(C(=O)NC(C)(C)CF)c3)cc12` [Compound 20025] belongs less than 0.1 µM.
Consider `CNC(=O)c1c(-c2ccc(F)cc2)oc2nc(CCC(F)(F)F)c(-c3cccc(C(=O)NCC(C)(C)CO)c3)cc12` [Compound 20026], for which the EC50 was less than 0.1 µM (read-out: EC50 1b (class)) and 0.0043 µM (read-out: EC50 (uM) 1b).
In the case of `CNC(=O)c1c(-c2ccc(F)cc2)oc2nc(CCC(F)(F)F)c(-c3cccc(C(=O)NC(C)(CO)CO)c3)cc12` [Compound 20027], the EC50 (read-out: EC50 1b (class)) is less than 0.1 µM.
Still for that read-out and setting: then `CCOC(=O)C(C)(C)NC(=O)c1cccc(-c2cc3c(C(=O)NC)c(-c4ccc(F)cc4)oc3nc2CCC(F)(F)F)c1` [Compound 20029], with less than 0.1 µM; and `CNC(=O)c1c(-c2ccc(F)cc2)oc2nc(CCC(F)(F)F)c(-c3cccc(C(=O)NCC(C)(C)C)c3)cc12` [Compound 20030], with less than 0.1 µM.
Turning to `CNC(=O)c1c(-c2ccc(F)cc2)oc2nc(CCC(F)(F)F)c(-c3cccc(C(=O)NC4CCOCC4)c3)cc12` [Compound 20031], the EC50 is less than 0.1 µM (read-out: EC50 1b (class)) and 0.0136 µM (read-out: EC50 (uM) 1b).
Turning to `CNC(=O)c1c(-c2ccc(F)cc2)oc2nc(CCC(F)(F)F)c(-c3cccc(C(=O)NCC4(COC)CC4)c3)cc12` [Compound 20032], the EC50 (read-out: EC50 1b (class)) was less than 0.1 µM.
The same measure, in the same setting: then `CNC(=O)c1c(-c2ccc(F)cc2)oc2nc(CCC(F)(F)F)c(-c3cccc(C(=O)NCC(C)(C)COC)c3)cc12` [Compound 20033], with less than 0.1 µM.
On to `CNC(=O)c1c(-c2ccc(F)cc2)oc2nc(CCC(F)(F)F)c(-c3cccc(C(=O)NC4CCOC4)c3)cc12` (stereo not drawn) [Compound 20034], for which the EC50 reads like this: (read-out: EC50 1b (class)) less than 0.1 µM; (read-out: EC50 (uM) 1b) 0.0118 µM.
For the compound `CNC(=O)c1c(-c2ccc(F)cc2)oc2nc(CCC(F)(F)F)c(-c3cccc(C(=O)NCC(C)(F)F)c3)cc12` [Compound 20035], the concentration giving a half-maximal response (EC50) (read-out: EC50 1b (class)) is less than 0.1 µM.
On the same count and under the same terms, to `CNC(=O)c1c(-c2ccc(F)cc2)oc2nc(CCC(F)(F)F)c(-c3cccc(C(=O)NC(C)(C)CCO)c3)cc12` [Compound 20036] belongs less than 0.1 µM.
With `CNC(=O)c1c(-c2ccc(F)cc2)oc2nc(CCC(F)(F)F)c(-c3cccc(C(=O)NCC(F)(F)C(F)(F)C(F)(F)F)c3)cc12` [Compound 20037], the EC50 is less than 0.1 µM (read-out: EC50 1b (class)) and 0.0106 µM (read-out: EC50 (uM) 1b).
As to `C#CC(C)(C)NC(=O)c1cc(-c2cc3c(C(=O)NC)c(-c4ccc(F)cc4)oc3nc2CCC(F)(F)F)ccc1OC` [Compound 21001], the EC50 (read-out: EC50 1b (class)) was less than 0.1 µM.
Regarding `CNC(=O)c1c(-c2ccc(F)cc2)oc2nc(CCC(F)(F)F)c(-c3ccc(OC)c(C(=O)NCC(F)(F)C(F)(F)C(F)(F)F)c3)cc12` [Compound 21002], the EC50 (read-out: EC50 1b (class)) is less than 0.1 µM.
Same read-out and setting: then `CNC(=O)c1c(-c2ccc(F)cc2)oc2nc(CCC(F)(F)F)c(-c3ccc(OC)c(C(=O)NC(CF)(CF)CF)c3)cc12` [Compound 21003], with less than 0.1 µM.
As to `CNC(=O)c1c(-c2ccc(F)cc2)oc2nc(CCC(F)(F)F)c(-c3ccc(F)c(C(=O)NC(C)C(F)(F)F)c3)cc12` (stereo not drawn) [Compound 22001], the EC50 is less than 0.1 µM (read-out: EC50 1b (class)) and 0.0108 µM (read-out: EC50 (uM) 1b).
Turning to `CCC(NC(=O)c1cc(-c2cc3c(C(=O)NC)c(-c4ccc(F)cc4)oc3nc2CCC(F)(F)F)ccc1F)C(F)(F)F` (stereo not drawn) [Compound 22002], the EC50 (read-out: EC50 1b (class)) was less than 0.1 µM.
The same measure, in the same setting: to `CNC(=O)c1c(-c2ccc(F)cc2)oc2nc(CCC(F)(F)F)c(-c3ccc(F)c(C(=O)NC(C)(C)C(F)(F)F)c3)cc12` [Compound 22003] belongs less than 0.1 µM.
The same measure, in the same setting: to `CNC(=O)c1c(-c2ccc(F)cc2)oc2nc(NCC(F)(F)F)c(-c3cccc(C(=O)NC(CF)(CF)CF)c3)cc12` [Compound 30001] belongs less than 0.1 µM.
Turning to `C#CC(C)(C)NC(=O)c1cccc(-c2cc3c(C(=O)NC)c(-c4ccc(F)cc4)oc3nc2NCC(F)(F)F)c1` [Compound 30002], the EC50 (read-out: EC50 1b (class)) was less than 0.1 µM and the concentration giving a half-maximal response (EC50) (read-out: EC50 (uM) 1b) was 0.0037 µM.

The values are drawn from US9957278B2, “Furopyridine compounds for the treatment of hepatitis C” (BRISTOL-MYERS SQUIBB COMPANY, priority 2014, dated 2018).
